Data taken from publication PMC3752901 (Clinical cancer research : an official journal of the …, 2013).

Experiments:
mOct2 = molecular target: T1, mOct2 (Mus musculus, UniProt O70577); assay: Uptake in HEK293 cells expressing mOct2; assay type: in vitro ADME; settings: HEK293, 1 μM
T1 sequence (O70577 1-553): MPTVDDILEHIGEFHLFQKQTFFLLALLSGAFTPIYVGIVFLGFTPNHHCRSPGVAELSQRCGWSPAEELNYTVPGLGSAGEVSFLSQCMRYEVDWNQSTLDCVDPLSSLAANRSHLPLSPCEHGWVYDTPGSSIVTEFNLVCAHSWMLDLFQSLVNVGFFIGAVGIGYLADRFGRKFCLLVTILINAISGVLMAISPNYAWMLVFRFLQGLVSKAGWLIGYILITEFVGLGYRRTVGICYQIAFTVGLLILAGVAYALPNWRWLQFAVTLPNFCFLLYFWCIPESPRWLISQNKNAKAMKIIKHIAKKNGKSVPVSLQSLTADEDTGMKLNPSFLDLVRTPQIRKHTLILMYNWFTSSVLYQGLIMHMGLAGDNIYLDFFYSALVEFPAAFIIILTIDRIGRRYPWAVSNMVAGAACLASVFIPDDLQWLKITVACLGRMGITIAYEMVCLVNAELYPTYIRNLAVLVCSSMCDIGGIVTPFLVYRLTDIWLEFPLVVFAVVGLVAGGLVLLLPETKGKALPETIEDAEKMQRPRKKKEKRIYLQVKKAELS

human ABCC4 = molecular target: T2, human ABCC4 (Homo sapiens, UniProt O15439); settings: 5 min, 1 μM
T2 sequence (O15439 1-1325): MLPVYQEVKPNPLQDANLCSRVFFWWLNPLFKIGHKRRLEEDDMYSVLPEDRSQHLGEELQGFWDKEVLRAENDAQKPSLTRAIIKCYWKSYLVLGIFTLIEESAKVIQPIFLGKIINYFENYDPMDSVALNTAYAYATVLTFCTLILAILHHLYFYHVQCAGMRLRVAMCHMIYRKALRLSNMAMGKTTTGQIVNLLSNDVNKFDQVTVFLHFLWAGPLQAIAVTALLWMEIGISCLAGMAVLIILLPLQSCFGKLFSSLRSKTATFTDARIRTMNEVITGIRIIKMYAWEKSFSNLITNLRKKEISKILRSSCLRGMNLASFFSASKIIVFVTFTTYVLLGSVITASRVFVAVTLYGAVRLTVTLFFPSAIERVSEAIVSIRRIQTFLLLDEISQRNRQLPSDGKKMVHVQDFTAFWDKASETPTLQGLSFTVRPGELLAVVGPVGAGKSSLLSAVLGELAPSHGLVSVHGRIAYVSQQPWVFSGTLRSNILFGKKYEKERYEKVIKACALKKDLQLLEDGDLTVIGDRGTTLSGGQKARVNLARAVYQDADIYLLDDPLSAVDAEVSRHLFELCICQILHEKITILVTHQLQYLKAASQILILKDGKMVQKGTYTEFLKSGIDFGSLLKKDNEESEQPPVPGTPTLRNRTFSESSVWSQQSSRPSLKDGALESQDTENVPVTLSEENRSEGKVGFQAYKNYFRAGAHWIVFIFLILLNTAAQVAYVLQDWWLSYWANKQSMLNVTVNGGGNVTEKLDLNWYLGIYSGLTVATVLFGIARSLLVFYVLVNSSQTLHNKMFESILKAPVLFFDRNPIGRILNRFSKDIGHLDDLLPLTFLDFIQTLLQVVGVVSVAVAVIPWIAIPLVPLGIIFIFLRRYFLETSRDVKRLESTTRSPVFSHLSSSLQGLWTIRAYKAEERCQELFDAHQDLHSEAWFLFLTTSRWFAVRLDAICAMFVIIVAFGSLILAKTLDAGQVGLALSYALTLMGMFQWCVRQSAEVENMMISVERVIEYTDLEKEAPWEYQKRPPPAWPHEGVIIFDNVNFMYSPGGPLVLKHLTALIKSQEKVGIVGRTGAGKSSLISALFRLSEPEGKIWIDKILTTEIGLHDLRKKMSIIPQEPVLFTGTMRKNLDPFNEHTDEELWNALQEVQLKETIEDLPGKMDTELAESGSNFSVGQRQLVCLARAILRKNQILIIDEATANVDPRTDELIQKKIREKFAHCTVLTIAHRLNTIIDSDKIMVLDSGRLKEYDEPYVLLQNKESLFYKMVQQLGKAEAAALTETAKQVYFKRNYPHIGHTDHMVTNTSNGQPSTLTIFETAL

intracellular accumulation on overexpression of Oct2 (mOct2): did not alter intracellular accumulation | accumulation in ABCC4-overexpressing vesicles compared to control vesicles (human ABCC4): 3.0 fold
SMILES: Cc1nc(Nc2ncc(C(=O)Nc3c(C)cccc3Cl)s2)cc(N2CCN(CCO)CC2)n1 [dasatinib, Dasatinib]
